Test results as given in PubChem BioAssay (NCI).
Several values for one entry are separate records, joined by “and”; a condition that tells them apart may be missing. Equal entries are not always repeated.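 1) Cells in 96-well plates. 2) Compound, 48 h, 5 concentrations. 3) Linear interpolation between surrounding doses. 4) Unreached endpoint = highest concentration. At the GI50, growth is halved. TGI: total growth inhibition.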

Columns and labels:
Assay in all cases: NCI tumour cell line growth inhibition, 48 h
TK-10 renal = test system: TK-10 renal
NCI-H226 lung = test system: NCI-H226 lung
OVCAR-4 ovarian = test system: OVCAR-4 ovarian
LOX IMVI melanoma = test system: LOX IMVI melanoma
COLO 205 colon = test system: COLO 205 colon
HOP-62 NSCLC = test system: HOP-62 NSCLC
SF-268 CNS = test system: SF-268 CNS
HS 578T breast = test system: HS 578T breast
NCI/ADR-RES ovarian = test system: NCI/ADR-RES ovarian
RXF 393 renal = test system: RXF 393 renal

Structure (SMILES) | GI50 (TK-10 renal) | TGI (TK-10 renal) | GI50 (NCI-H226 lung) | TGI (NCI-H226 lung) | GI50 (OVCAR-4 ovarian) | TGI (OVCAR-4 ovarian) | GI50 (LOX IMVI melanoma) | TGI (LOX IMVI melanoma) | GI50 (COLO 205 colon) | TGI (COLO 205 colon) | GI50 (HOP-62 NSCLC) | TGI (HOP-62 NSCLC) | GI50 (SF-268 CNS) | TGI (SF-268 CNS) | GI50 (HS 578T breast) | TGI (HS 578T breast) | GI50 (NCI/ADR-RES ovarian) | TGI (NCI/ADR-RES ovarian) | GI50 (RXF 393 renal) | TGI (RXF 393 renal)
Cc1ccc2c(c1)C(=O)c1c-2c(OCCCN(C)C)nc2ccccc12 | 7.9 µM | 23.3 µM | 2.49 µM | 13.7 µM | 2.73 µM | 13.1 µM | 1.18 µM | 2.52 µM | 1.16 µM | 3.82 µM | 2.52 µM | 16 µM | 2.3 µM | 12.9 µM | 4.24 µM | 19.8 µM | 1.24 µM | 6.53 µM | 2.26 µM | 12.7 µM
C[C@]12CC[C@H]3[C@@H](CC4SC(N)=NC45C/C(=N/NC(N)=O)CC[C@]35C)[C@@H]1CCC2=O (stereo partly drawn) | 2.29 µM | 5.45 µM | 2.09 µM | 4.91 µM | 1.74 µM | 3.17 µM | 1.71 µM | 3.12 µM | 2.06 µM | 4.37 µM | 1.84 µM | 3.47 µM | 1.78 µM | 4.11 µM | 2.08 µM | 5.15 µM | 1.94 µM | 3.87 µM | 1.61 µM | 3.23 µM
O=C(CI)Nc1ccc(O)c2ccccc12 | 1.72 µM | 3.75 µM | 1.67 µM | 5.61 µM | 0.575 µM | 1.23 µM | 1.28 µM | 2.68 µM | 0.379 µM | 0.956 µM | 2.27 µM | 5.14 µM | 2.03 µM | 5.56 µM | 2.45 µM | 8.49 µM | 2.97 µM | 14.8 µM | 0.742 µM | 1.97 µM
COc1ccc(/C(C#N)=C/c2cc(OC)c(OC)c(OC)c2)cc1 | 37.4 µM | > 100 µM | 29.1 µM | > 100 µM | 38.4 µM | > 100 µM | 22.2 µM | > 100 µM | 20.1 µM | 64.8 µM | 34.3 µM | > 100 µM | 39.6 µM | > 100 µM | 38.7 µM | > 100 µM | 13.2 µM | 65.1 µM | 20.6 µM | > 100 µM
CCC1(OC(=O)CN)C(=O)OCc2c1cc1n(c2=O)Cc2cc3ccccc3nc2-1 (stereo not drawn) | 0.721 µM | 15.1 µM | 0.0151 µM | 0.15 µM and 0.0638 µM | 0.256 µM | 0.994 µM and 4.55 µM | 0.0089 µM | – | 0.276 µM | 0.667 µM | 0.0946 µM | 0.285 µM | 0.00689 µM | 14.2 µM | – | > 90.7 µM | 0.0173 µM | 0.137 µM and 0.0776 µM | 0.148 µM | 0.88 µM and 0.307 µM
COc1cc(OC)c(OC)cc1/C=C/c1cnnc2ccccc12 | – | > 10 µM | – | > 10 µM | – | > 10 µM | – | > 10 µM | – | > 10 µM | – | > 10 µM | – | > 10 µM | – | > 10 µM | – | > 10 µM | – | > 10 µM
O=CN1N=C(c2cccc(Nc3ccnc4cc(Cl)ccc34)c2)CC1c1ccccc1 (stereo not drawn) | 0.345 µM | 16.4 µM | 3.32 µM | > 55.7 µM | 0.536 µM | > 100 µM | 0.449 µM | 4.34 µM | 0.35 µM | 2.76 µM | 0.495 µM | 17.3 µM | 0.768 µM | 41.2 µM | 0.248 µM | 3.4 µM | 0.29 µM | 1.17 µM | 0.336 µM | 3.58 µM
Clc1ccc2nc(CI)c(CI)nc2c1 | 3 µM | 10.2 µM | 10.4 µM | > 38 µM | 2.45 µM | 6.22 µM | 1.64 µM | 3.37 µM | 1.77 µM | 3.28 µM | 28.7 µM | > 56.3 µM | 4.69 µM | 14.3 µM | 20.6 µM | > 65.5 µM | 6.8 µM | > 57.7 µM | 4.04 µM | 9.36 µM
C[C@H]1COCCN1c1cc(C2(S(=O)(=O)C3CC3)CC2)nc(-c2ccc(NC(=S)NCCO)cc2)n1 | 0.0148 µM | 0.274 µM | 0.0237 µM | 1.34 µM | 0.0159 µM | 0.233 µM | 0.0306 µM | 12.3 µM | 0.0172 µM | 10.4 µM | 0.0486 µM | 4.37 µM | 0.0332 µM | > 41.3 µM | 0.0109 µM | 0.0643 µM | 1.93 µM | 47.8 µM | < 0.0112 µM | 0.0689 µM
Cc1nc2ccccn2c1NC(=O)NNC(=S)Nc1ccc(F)cc1 | > 100 µM | > 100 µM | > 100 µM | > 100 µM | > 100 µM | > 100 µM | > 100 µM | > 100 µM | > 100 µM | > 100 µM | > 100 µM | > 100 µM | > 100 µM | > 100 µM | > 100 µM | > 100 µM | > 100 µM | > 100 µM | > 100 µM | > 100 µM
Cn1c(-c2ccccc2)c(/C=C/C2=[N+](C)c3ccccc3C2(C)C)c2ccccc21 | 1.35 µM | 11.5 µM | 2.35 µM | 12.2 µM | 1.81 µM | 14.4 µM | 0.527 µM | 3.25 µM | 1 µM | 2.47 µM | 2.15 µM | 12.6 µM | 1.32 µM | 12.9 µM | 1.08 µM | 16.6 µM | 9.8 µM | 72.3 µM | 2.55 µM | 12.6 µM
Cn1nc(C(F)(F)F)c(-c2cc(C(F)(F)F)cc(C(F)(F)F)c2)c1-c1ccc(OCc2ccc(Cl)cc2)cc1O | 3.11 µM | 11.1 µM | 2.1 µM | 5.67 µM | 2.68 µM | 13.3 µM | 1.98 µM | 4.31 µM | 1.7 µM | 3.36 µM | 2.82 µM | 8.57 µM | 2.65 µM | 13 µM | 2.19 µM | 6.78 µM | 2.81 µM | 9.8 µM | 2.32 µM | 6.76 µM
